Measurements taken from PubChem BioAssay AID2253 (Southern Research Specialized Biocontainment Screening …, 2010).

Each compound was assayed on THP-1 viability, CellTiter-Glo luminescence, 72 h (assay: human monocytic cell viability reduction – S. typhimurium screen hits, cytotoxicity control for Salmonella PhoP regulon inhibitors, dose response (AID 2253)).

| SMILES | EC50 [µM] |
| --- | --- |
| O=C(CSc1ccccn1)N/N=C/c1cc([N+](=O)[O-])ccc1O | 17.1 |
| CCN1CCN(C(c2cccnc2)c2cc(Cl)c3cccnc3c2O)CC1 (stereo not given) | 8.34 |
| CCOc1ccc(CSC(=N)N)cc1[N+](=O)[O-] | 20.4 |
| O=c1cc2oc3cc(O)c(O)cc3c(-c3ccccc3[N+](=O)[O-])c-2cc1O | 10.5 |
| N#CC1=C(N)N=C(SCc2cccc3ccccc23)C(C(N)=O)C12CCCCC2 (stereo not given) | 20.9 |
| O=c1c(Cl)c(Cl)cnn1-c1ccccc1 | 1.41 |
| O=C(O)C1Nc2c(O)cccc2C2C=CCC12 (stereo not given) | 22.6 |
| O=S(=O)(/N=C(/Nc1cccc2ccccc12)c1ccccc1)c1cccs1 | 28.9 |
| Cc1cc(/C=N/NC(=O)c2cccc([N+](=O)[O-])c2)c(C)n1-c1ccc(Cl)cc1Cl | 43.9 |
| Cc1ccc(C(=O)NNc2c3ccccc3nc3ccccc23)cc1 | 27.5 |
| N=c1n(CC(=O)c2ccc(Br)s2)c2ccccc2n1Cc1ccccc1 | 7.56 |
| COc1ccc(C)cc1NC(=O)C(Sc1nnc(-c2ccncc2)n1-c1ccc(Cl)cc1)c1ccccc1 (stereo not given) | 22 |
| Oc1c(Cl)cc(Cl)c(Cl)c1Cc1c(O)c(Cl)cc(Cl)c1Cl | 14.7 |
| O=C(N/N=C/c1ccc(O)cc1O)C(=O)N/N=C/c1ccc(O)cc1O | 6.9 |
| Oc1c(Cl)cc(Cl)c2cccnc12 | 12.8 |
| Nc1c(C(=O)NCCc2ccc(Cl)cc2)sc2ccc(S(=O)(=O)N3CCCCC3)cc12 | 31.5 |
| Cc1ccc(S(=O)(=O)/N=C2/C=C(Sc3ncn[nH]3)C(=O)c3ccccc32)c(C)c1 | 5.51 |
| CCc1ccc(NC(=O)C[n+]2cc(-c3ccc(C)cc3)n3c2CCC3)cc1 | 5.74 |
| O=C(Cc1n[nH]c(=O)c2ccccc12)OCC(=O)c1ccc2c(c1)OCCO2 | 1.34 |
| CCCCC1(CCCC)C(=O)NC(=Nc2cccc(C)c2)NC1=O | 39.1 |

| SMILES | EC50 [µM] |
| --- | --- |
| COc1ccc(C(C[N+](=O)[O-])C2(c3ccc(OC)c(OC)c3)C(=O)c3ccccc3C2=O)cc1 (stereo not given) | 12.5 |
| C=CCNc1ncnc2c1[nH]c1ccc(C)cc12 | 25.8 |
| O=C(c1ccccc1)c1c2c(cc3sc4ccccc4[n+]13)-c1cccc3cccc-2c13 | 1.28 |
| O=C(NNc1c2ccccc2nc2ccccc12)c1cccc(O)c1 | 23.2 |
| CCOC(=S)SCC(=O)Nc1nc(-c2ccccc2)cs1 | 4.91 |
| Cc1ccsc1C=Nc1ccc(O)cc1 | 25.9 |
| Cc1ccc(Nc2cc(C)nn2-c2nc(C)cc(=O)[nH]2)cc1 | 0.62 |
| COc1ccc(Nc2cc(C)c3c(O)cccc3n2)cc1 | 15 |
| Cc1ccccc1OCCSCc1nc2ccccc2[nH]1 | 30.4 |
| CCCCCCCCn1c2c(c(=N)c3ccccc31)CCC2 | 0.98 |
| Cc1ccc(O)c(-c2cc(-c3ccccc3C)[nH]n2)c1 | 19.9 |
| CCCc1cc(-c2nc(N)ncc2-c2ccc3c(c2)OCCCO3)c(O)cc1OC | 19.9 |
| O=[N+]([O-])c1cc(Cl)c2cccnc2c1O | 27.7 |
| COc1ccc(C(C[N+](=O)[O-])n2nc(C)cc2C)cc1 (stereo not given) | 10.1 |
| CCOc1ccc(-n2c(SCc3nc(-c4ccc(C)cc4)no3)nnc2-c2ccncc2)cc1 | 28.3 |
| COc1ccc(OC)c(C2C=C(C34CC5CC(CC(C5)C3)C4)NC(=S)N2)c1 (stereo not given) | 49.8 |
| O=C(Nc1ccc(Br)cc1)c1ccc(F)c(S(=O)(=O)NCc2cccs2)c1 | 21.7 |
| c1ccc2cc(CSCc3nc4ccccc4[nH]3)ccc2c1 | 42.6 |
| CC(C)NC1=C(Cl)C(=O)c2ccccc2C1=O | 18.9 |
| CCCCCCOC(=O)Sc1nc2ccccc2o1 | 35 |

| SMILES | EC50 [µM] |
| --- | --- |
| O=c1c2c(-c3ccccc3)csc2nc2c3ccccc3c(NCCN3CCOCC3)nn12 | 3.11 |
| COc1ccc(/C=C2\CN(Cc3ccccc3)C/C(=C\c3ccc(OC)cc3)C2=O)cc1 | 12.7 |
| Oc1ccccc1Nc1nc(NCc2ccco2)c2ccccc2n1 | 13.2 |
| NCCCC[C@H]1CN=C(N)N1CCC12CC3CC(CC(C3)C1)C2 | 33.1 |
| O=c1[nH]cc(F)c(=O)[nH]1 | 4.25 |
| CC(=O)NC(c1cccc([N+](=O)[O-])c1)c1ccc2cccnc2c1O (stereo not given) | 0.49 |
| Oc1ccc(N2CCN(Cc3ccc(OCCCN4CCCCC4)cc3)CC2)cc1 | 29.5 |
| CCCC(=O)NC(c1ccc(C)cc1)c1ccc2cccnc2c1O (stereo not given) | 0.46 |
| Cc1ccc(-c2cc(C(=O)Nc3nccs3)c3ccccc3n2)o1 | 31.7 |
| COc1cc([N+](=O)[O-])cc(/C=N\NC(=O)C2COc3ccccc3O2)c1O (stereo not given) | 19.6 |
| CCCCCCCNC(=O)C1(CC2CC(c3cccc(Br)c3)=NO2)CCNCC1 (stereo not given) | 4.13 |
| Clc1ccc(Cn2ncc3c(NCc4ccco4)ncnc32)c(Cl)c1 | 6.81 |
| NC1=NC[C@@H](Cc2ccc(O)cc2)N1CCCCC1CCCCC1 | 5.45 |
| CN(O)/C=c1/ccc2c(n1)C(=O)C=CC=2 | 23.3 |
| Cc1ccccc1OCc1n(CC(=O)OC2CC(C)CCC2C(C)C)c2ccccc2[n+]1C (stereo not given) | 2 |
| CCOc1ccc(/C=C/C(=O)Nc2ccc(OC)cc2[N+](=O)[O-])cc1 | 27.5 |
| N#C/C(=C\c1c(Cl)cccc1Cl)c1nc2ccccc2[nH]1 | 27.9 |
| Nc1cc(Cl)c2nonc2c1[N+](=O)[O-] | 2.24 |
| C=CCc1cccc(C2Nc3ccccc3C(=O)N2O)c1O (stereo not given) | 43.1 |
| N#CC(C#N)=c1ccc2c(c1)NC1(CCCCC1)N=2 | 4.08 |
